One test deals with NSD2 [1-1365] (Homo sapiens (Human), UniProt O96028). In words: LC-MS/MS-based NSD2 enzymatic assay (SAH production). Type of test: biochemical. Particulars: read-out: NSD2 IC50. Summed up: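 SAH formed was measured by LC-MS/MS using d4-SAH as internal standard and an SAH calibration curve. Compounds were preincubated 20 min with NSD2 [1-1365] and SAM; mouse-liver nucleosome then started a 90 min room-temperature reaction (8 nM enzyme, 1 μM SAM, 400 nM nucleosome final, pH 8.0), stopped with TFA.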

Test [1] deals with cellular H3K36me2 level in thyroid carcinoma cell line CGTH-W-1 (NSD2 E1099K). In words: H3K36me2 cellular ELISA assay in CGTH-W-1 line. Type of test: cell-based. The note with it: Homo sapiens, CGTH-W-1, 72 h, read-out: H3K36me2 ELISA in CGTH-W-1. As to the method:
H3K36Me2 Cellular ELISA Assay in CGTH-W-1 Line
An ELISA (enzyme-linked immunosorbent assay) based assay was used to test the ability of candidate compound to reduce cellular H3K36me2 level in thyroid carcinoma cell line CGTH-W-1, carrying NSD2 E1099K gain of function mutation. CGTH-W-1 (DSMZ) cells are maintained in RPM11640 media with 10% FBS and 50 U/ml Penicillin-Streptomycin.
Cells were treated with tested compounds at the desired concentration for 72 hours.
Histone bound plates were washed and blocked with 5% BSA. […] The abundance of H3K36me2 and total H3 was measured by Chemiluminesce on a plate reader. Cell viability was monitored on a parallel seeded plate with CellTiter-Glo reagent (Promega #G7573).

For test [2], the system named is cellular H3K36me2 level in multiple myeloma cell line KMS11 (t(4;14)+). In words: H3K36me2 cellular ELISA assay in KMS11-Par line. In kind it is cell-based. Particulars: Homo sapiens, KMS-11, ELISA, read-out: H3K36me2 ELISA in KMS11-Par. Summed up: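 After 72 h compound exposure, HCl-extracted histones from KMS11 (t(4;14)+) cells were probed by ELISA for H3K36me2 against total H3 with a chemiluminescence read-out. Cells were plated at 1,250/well in Opti-MEM plus B-27 and N2 the day before. A parallel CellTiter-Glo plate tracked viability.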
(In general: ELISA stands for enzyme-linked immunosorbent assay.)

pIC50: −log10 of the molar value. Read-outs that look alike come from different tables or passages of the source.

NSD2 [1-1365], sequence (O96028 whole entry): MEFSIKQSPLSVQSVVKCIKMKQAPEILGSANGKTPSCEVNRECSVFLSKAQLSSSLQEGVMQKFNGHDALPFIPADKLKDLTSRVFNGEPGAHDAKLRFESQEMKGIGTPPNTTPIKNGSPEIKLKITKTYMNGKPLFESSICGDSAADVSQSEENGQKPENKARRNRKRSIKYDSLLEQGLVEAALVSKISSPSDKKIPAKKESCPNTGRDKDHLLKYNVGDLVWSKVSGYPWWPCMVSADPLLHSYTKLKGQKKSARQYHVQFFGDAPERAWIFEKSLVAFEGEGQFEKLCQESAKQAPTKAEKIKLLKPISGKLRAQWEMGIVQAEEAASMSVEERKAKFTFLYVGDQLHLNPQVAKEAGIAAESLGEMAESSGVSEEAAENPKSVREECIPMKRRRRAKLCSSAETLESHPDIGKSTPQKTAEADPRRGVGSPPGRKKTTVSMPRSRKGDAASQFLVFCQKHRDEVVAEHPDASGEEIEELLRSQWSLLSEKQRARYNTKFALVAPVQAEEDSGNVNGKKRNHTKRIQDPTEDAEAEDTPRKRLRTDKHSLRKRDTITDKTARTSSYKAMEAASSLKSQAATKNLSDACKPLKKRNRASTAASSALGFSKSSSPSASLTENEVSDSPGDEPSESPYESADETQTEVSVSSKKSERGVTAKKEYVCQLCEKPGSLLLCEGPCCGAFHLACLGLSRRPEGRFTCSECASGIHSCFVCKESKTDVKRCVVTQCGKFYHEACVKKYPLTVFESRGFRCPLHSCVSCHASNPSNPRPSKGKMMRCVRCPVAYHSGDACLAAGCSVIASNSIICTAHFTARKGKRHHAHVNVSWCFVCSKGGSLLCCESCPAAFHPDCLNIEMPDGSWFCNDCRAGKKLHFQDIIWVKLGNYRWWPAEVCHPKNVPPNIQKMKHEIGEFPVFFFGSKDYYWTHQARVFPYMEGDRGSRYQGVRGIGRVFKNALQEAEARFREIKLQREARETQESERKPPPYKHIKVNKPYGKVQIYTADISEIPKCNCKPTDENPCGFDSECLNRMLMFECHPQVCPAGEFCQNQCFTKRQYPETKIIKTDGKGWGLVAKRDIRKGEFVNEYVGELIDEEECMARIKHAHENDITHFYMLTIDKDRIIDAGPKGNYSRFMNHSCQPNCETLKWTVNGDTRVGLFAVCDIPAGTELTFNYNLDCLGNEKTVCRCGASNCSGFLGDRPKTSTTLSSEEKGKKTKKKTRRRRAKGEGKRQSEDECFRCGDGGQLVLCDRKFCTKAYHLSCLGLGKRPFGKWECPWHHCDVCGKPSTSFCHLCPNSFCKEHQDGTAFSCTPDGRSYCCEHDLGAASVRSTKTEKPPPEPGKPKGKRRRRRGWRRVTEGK

Regarding `Nc1ncnc2c1ncn2Cc1cc(-c2cc(F)c(F)cc2C(F)F)ncc1N1CCC[C@](N)([C@@H]2COCCO2)C1` [Example 291, 9-((5-((R)-3-amino-3-((R)-1,4-dioxan-2-yl)piperidin-1-yl)-2-(2-(difluoromethyl)-4,5-difluorophenyl)pyridin-4-yl)methyl)-9H-purin-6-amine], the pIC50 on NSD2 [1-1365] was 6.00 to 8.00; in test [1], 6.09; in test [2] (KMS11-Par line, 72 hours), 5.77.
In the case of `COc1ccc(-c2cc(Cn3cnc4c(N)ncnc43)c(N3CCC[C@](N)(C(F)F)C3)cn2)cc1F` [Example 305, (R)-9-((5-(3-amino-3-(difluoromethyl)piperidin-1-yl)-2-(3-fluoro-4-methoxyphenyl)pyridin-4-yl)methyl)-9H-purin-6-amine], the pIC50 was 6.00 to 8.00 at NSD2 [1-1365]; 5.47 in test [1]; 5.32 in test [2] (KMS11-Par line, 72 hours).
On to `Nc1ncnc2c1ncn2Cc1cc(-c2ccc(F)cc2)ncc1N1CCC[C@](N)(c2cccc(C3CC3)n2)C1` [Example 182, (R)-9-((5-(3-amino-3-(6-cyclopropylpyridin-2-yl)piperidin-1-yl)-2-(4-fluorophenyl)pyridin-4-yl)methyl)-9H-purin-6-amine], for which the pIC50 at NSD2 [1-1365] was 8.00 to 9.00; in test [1], 7.01; in test [2] (KMS11-Par line, 72 hours), 6.85.
`Cn1ncc2cc(-c3cc(Cn4cnc5c(N)ncnc54)c(N4CCC[C@](N)([C@@H](O)C(F)F)C4)cn3)c(F)cc21` [Example 123, (R)-1-((R)-3-amino-1-(4-((6-amino-9H-purin-9-yl)methyl)-6-(6-fluoro-1-methyl-1H-indazol-5-yl)pyridin-3-yl)piperidin-3-yl)-2,2-difluoroethan-1-ol]: the pIC50 is 8.00 to 9.00 on NSD2 [1-1365] (NSD2 biochemical activity, class symbols); 5.83 in test [1]; 5.11 in test [2] (KMS11-Par line (t(4;14)+), 72 hours treatment).
As to `COc1ccc(-c2cc(Cn3cnc4c(N)ncnc43)c(N3CCC[C@](N)(c4ccc(F)c(C)n4)C3)cn2)cc1` [Example 241, (R)-9-((5-(3-amino-3-(5-fluoro-6-methylpyridin-2-yl)piperidin-1-yl)-2-(4-methoxyphenyl)pyridin-4-yl)methyl)-9H-purin-6-amine], the pIC50 on NSD2 [1-1365] is 6.00 to 8.00; in test [1] it was 5.92; in test [2] (KMS11-Par line, 72 hours), 5.39.
On the same counts, the results for `Nc1ncnc2c1ncn2Cc1cc(-c2ccc(F)c(F)c2)ncc1N1CCC[C@](N)(c2ccccn2)C1` [Example 198, (R)-9-((5-(3-amino-3-(pyridin-2-yl)piperidin-1-yl)-2-(3,4-difluorophenyl)pyridin-4-yl)methyl)-9H-purin-6-amine] are 8.00 to 9.00, 7.75 and 7.39.
With `COc1cc(F)c(-c2cc(Cn3cnc4c(N)ncnc43)c(N3CCC[C@](N)(c4cccc(Cl)n4)C3)cn2)c(F)c1` [Example 236, (R)-9-((5-(3-amino-3-(6-chloropyridin-2-yl)piperidin-1-yl)-2-(2,6-difluoro-4-methoxyphenyl)pyridin-4-yl)methyl)-9H-purin-6-amine], the pIC50 at NSD2 [1-1365] was 6.00 to 8.00; in test [1], 5.86; in test [2] (KMS11-Par line, 72 hours), 5.20.
Consider `Nc1ncnc2c1ncn2Cc1cc(-c2ccc(F)c(F)c2)ncc1N1CCC[C@](N)([C@H](O)C(F)(F)F)C1` [Example 299, (S)-1-((R)-3-amino-1-(4-((6-amino-9H-purin-9-yl)methyl)-6-(3,4-difluorophenyl)pyridin-3-yl)piperidin-3-yl)-2,2,2-trifluoroethan-1-ol], for which the pIC50 on NSD2 [1-1365] was 6.00 to 8.00; in test [1] it was 5.94; in test [2] (KMS11-Par line, 72 hours), 5.01.
For the molecule `Nc1ncnc2c1ncn2Cc1cc(-c2ccc(F)c(F)c2)ncc1N1CCC[C@](N)(c2cccc(O)n2)C1` [Example 217, (R)-6-(3-amino-1-(4-((6-amino-9H-purin-9-yl)methyl)-6-(3,4-difluorophenyl)pyridin-3-yl)piperidin-3-yl)pyridin-2-ol], the pIC50 on NSD2 [1-1365] is 8.00 to 9.00; in test [1] it was 5.65.

Values taken from US11420970B1 (NOVARTIS AG, priority 2019, dated 2022).
